Results published in patent US20250289813A1, “CDK INHIBITORS, PHARMACEUTICAL COMPOSITIONS, AND THERAPEUTIC APPLICATIONS” (ONQUALITY PHARMACEUTICALS CHINA LTD., priority 2022, published 2025).

Key:
[1] = target: CDK4/cyclin D1 (Homo sapiens (Human), UniProt P11802); experiment: CDK4 Caliper Mobility Shift assay; type: biochemical
Description: (§1) A Caliper Mobility Shift assay was used to determine the inhibitory activities of a compound against CDK4/cyclin D1 and CDK6/cyclin D1 in their respective kinase buffers (CDK4: 20 mM HEPES, pH 7.5, and 0.01% Triton X-100; CDK6: 50 mM HEPES, pH 7.5, and 0.0015% BRIJ-35). The CDK4/cyclin D1 and CDK6/cyclin D1 were obtained from PROQINASE and CARNA, respectively. A FAM-labeled peptide was obtained from GL.
(§2) The compound at predetermined concentrations was pre-incubated with CDK4/cyclin D1 or CDK6/cyclin D1 in a 384-well microplate at room temperature for 10 min. The FAM-labeled peptide and ATP were subsequently added to initiate the kinase reactions. The final enzyme concentrations were 15 nM for CDK4 and 7.5 nM for CDK6. The final ATP concentrations were […] for CDK4 and […] for CDK6. The microplate was allowed to incubate at 28° C. The kinase reactions were stopped by adding a stop buffer (100 mM HEPES, pH 7.5, 0.012% BRIJ-35, 0.2% Coating Reagent 3 (Caliper Life Sciences), and […]). Conversion data were recorded and utilized to calculate the percent inhibition values for each compound and an IC50 value was then determined. The results are summarized in Table 1, where the symbol “***” represents a value no greater than 200 nM, the symbol “**” represents a value greater than 200 nM but no greater than 500 nM, and the symbol “*” represents a value greater than 500 nM.

[2] = target: CDK6/cyclin D1 (Homo sapiens (Human), UniProt Q00534); experiment: CDK6 Caliper Mobility Shift assay; type: biochemical
Description: as §1, §2

[3] = system: MCF-7 human breast cancer cells; experiment: CELLTITER-GLO luminescent cell viability assay; type: cell-based; conditions: MCF7, 192 h, MCF-7 cells, 8 days, read-out: EC50 (Effect on Cell Viability)
Description: A CELLTITER-GLO luminescent cell viability assay was carried out using MCF-7 human breast cancer cells under the normal growth condition. The MCF-7 human breast cancer cells were grown at 37° C. in a 5% CO2 humidified incubator in EMEM, supplemented 10% FBS, 0.01 mg/mL bovine insulin. The cells were seeded at a 3,000 cells/well in a 96-well tissue culture plate. The cells were allowed to adhere overnight in the incubator. A compound (5 μL) in a medium at a predetermined concentration. After the cells was incubated at 37° C. for 8 days, a CELLTITER-GLO detection solution (100 μL) was added. The cells were mixed on an orbital shaker for 5 min and then incubated for additional 10 min. The plate was read with an ENVISION reader. The results are summarized in Table 2, where the symbol “+++” represents a value no greater than 1 μM, the symbol “++” represents a value greater than 1 μM but no greater than 10 μM, and the symbol “+” represents a value greater than 10 μM.

Sequence of CDK6/cyclin D1 (Q00534 whole entry): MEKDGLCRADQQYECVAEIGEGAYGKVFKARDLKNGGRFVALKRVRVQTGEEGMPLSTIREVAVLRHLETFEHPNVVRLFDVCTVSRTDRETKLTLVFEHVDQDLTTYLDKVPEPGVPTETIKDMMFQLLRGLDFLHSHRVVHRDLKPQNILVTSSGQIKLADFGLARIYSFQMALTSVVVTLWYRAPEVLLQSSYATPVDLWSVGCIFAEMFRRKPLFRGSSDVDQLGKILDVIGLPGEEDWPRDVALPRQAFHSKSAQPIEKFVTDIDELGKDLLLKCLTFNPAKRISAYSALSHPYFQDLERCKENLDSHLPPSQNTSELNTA
Sequence of CDK6/cyclin D1 (P24385 whole entry partner): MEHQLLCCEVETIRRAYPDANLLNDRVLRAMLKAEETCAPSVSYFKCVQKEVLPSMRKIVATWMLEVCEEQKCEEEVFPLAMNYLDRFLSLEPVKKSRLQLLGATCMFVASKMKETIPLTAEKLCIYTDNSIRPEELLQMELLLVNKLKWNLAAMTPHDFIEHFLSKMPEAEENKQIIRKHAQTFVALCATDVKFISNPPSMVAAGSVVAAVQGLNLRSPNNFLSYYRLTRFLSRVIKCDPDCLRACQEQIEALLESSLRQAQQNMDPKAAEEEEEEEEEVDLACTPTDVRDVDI
Sequence of CDK4/cyclin D1 (P11802 whole entry): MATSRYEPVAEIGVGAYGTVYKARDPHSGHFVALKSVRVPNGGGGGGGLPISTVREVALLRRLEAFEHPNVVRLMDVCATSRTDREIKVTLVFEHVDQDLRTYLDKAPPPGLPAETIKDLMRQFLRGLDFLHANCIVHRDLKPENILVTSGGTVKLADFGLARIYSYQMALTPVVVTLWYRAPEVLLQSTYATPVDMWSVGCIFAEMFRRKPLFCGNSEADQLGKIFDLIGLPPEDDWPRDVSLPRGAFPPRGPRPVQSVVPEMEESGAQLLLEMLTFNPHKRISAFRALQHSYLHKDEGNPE
Sequence of CDK4/cyclin D1 (P24385 whole entry partner): as the sequence (P24385 whole entry partner) above

CC(=O)c1c(C)c2cnc(Nc3ccc(N4CCN(S(=O)(=O)O)CC4)cn3)nc2n(C2CCCC2)c1=O [Compound 6.1, 4-(6-((6-Acetyl-8-cyclopentyl-5-methyl-7-oxo-7,8-dihydropyrido[2,3-d]-pyrimidin-2-yl)amino)pyridin-3-yl)piperazine-1-sulfonic acid]
IC50 [1]: ≤ 200 nM | IC50 [2]: 200 to 500 nM

CC(=O)c1c(C)c2cnc(Nc3ccc(N4CCN(S(N)(=O)=O)C[C@@H]4C)cn3)nc2n(C2CCCC2)c1=O [Compound A3, (S)-4-(6-((6-acetyl-8-cyclopentyl-5-methyl-7-oxo-7,8-dihydropyrido[2,3-d]-pyrimidin-2-yl)-amino)pyridin-3-yl)-3-methylpiperazine-1-sulfonamide]
IC50 [1]: ≤ 200 nM | IC50 [2]: ≤ 200 nM | EC50 [3]: 1000 to 10000 nM

CC(=O)c1c(C)c2cnc(Nc3ccc(N4CCN(S(=O)(=O)NC(=O)OC(C)(C)C)CC4)cn3)nc2n(C2CCCC2)c1=O [Compound A4, tert-butyl ((4-(6-((6-acetyl-8-cyclopentyl-5-methyl-7-oxo-7,8-dihydropyrido[2,3-d]pyrimidin-2-yl)amino)pyridin-3-yl)piperazin-1-yl)sulfonyl)carbamate]
IC50 [1]: ≤ 200 nM | IC50 [2]: ≤ 200 nM | EC50 [3]: > 10000 nM

CC(=O)c1c(C)c2cnc(Nc3ccc(N4CCN(S(N)(=O)=O)CC4)cn3)nc2n(C2CCCC2)c1=O [Compound A5, 4-(6-((6-acetyl-8-cyclopentyl-5-methyl-7-oxo-7,8-dihydropyrido[2,3-d]pyrimidin-2-yl)amino)pyridin-3-yl)-piperazine-1-sulfonamide]
IC50 [1]: ≤ 200 nM | IC50 [2]: 200 to 500 nM

CC(=O)c1c(C)c2cnc(Nc3ccc(N4CCN(S(=O)(=O)N5CCCC[C@@H]5CO)CC4)cn3)nc2n(C2CCCC2)c1=O [Compound A7, (R)-6-acetyl-8-cyclopentyl-2-((5-(4-((2-(hydroxymethyl)piperidin-1-yl)sulfonyl)-piperazin-1-yl)pyridin-2-yl)amino)-5-methylpyrido[2,3-d]pyrimidin-7(8H)-one]
IC50 [1]: ≤ 200 nM | IC50 [2]: ≤ 200 nM | EC50 [3]: 1000 to 10000 nM

COCCOC(=O)NS(=O)(=O)N1CCN(c2ccc(Nc3ncc4c(C)c(C(C)=O)c(=O)n(C5CCCC5)c4n3)nc2)CC1 [Compound A8, 2-Methoxyethyl ((4-(6-((6-acetyl-8-cyclopentyl-5-methyl-7-oxo-7,8-dihydropyrido[2,3-d]pyrimidin-2-yl)amino)pyridin-3-yl)piperazin-1-yl)sulfonyl)carbamate]
IC50 [1]: 200 to 500 nM | IC50 [2]: ≤ 200 nM | EC50 [3]: > 10000 nM

CC(=O)c1c(C)c2cnc(Nc3ccc(N4CCN(S(=O)(=O)NC(=O)OCC(=O)O)CC4)cn3)nc2n(C2CCCC2)c1=O [Compound A11, 2-((((4-(6-((6-Acetyl-8-cyclopentyl-5-methyl-7-oxo-7,8-dihydropyrido[2,3-d]-pyrimidin-2-yl)amino)pyridin-3-yl)piperazin-1-yl)sulfonyl)carbamoyl)oxy)acetic acid]
IC50 [1]: 200 to 500 nM | IC50 [2]: ≤ 200 nM

CC(=O)c1c(C)c2cnc(Nc3ccc(N4CCN(S(=O)(=O)NC(=O)OCCNC(=O)[C@@H](C)N)CC4)cn3)nc2n(C2CCCC2)c1=O [Compound A16, (R)-2-(2-Aminopropanamido)ethyl ((4-(6-((6-acetyl-8-cyclopentyl-5-methyl-7-oxo-7,8-dihydropyrido[2,3-d]pyrimidin-2-yl)amino)pyridin-3-yl)piperazin-1-yl)sulfonyl)-carbamate]
IC50 [1]: ≤ 200 nM | IC50 [2]: ≤ 200 nM

CC(=O)c1c(C)c2cnc(Nc3ccc(N4CCN(S(=O)(=O)NC(=O)OCCNC(=O)[C@@H](N)CC(C)C)CC4)cn3)nc2n(C2CCCC2)c1=O [Compound A17, (S)-2-(2-Amino-4-methylpentanamido)ethyl ((4-(6-((6-acetyl-8-cyclopentyl-5-methyl-7-oxo-7,8-dihydropyrido[2,3-d]pyrimidin-2-yl)amino)pyridin-3-yl)piperazin-1-yl)-sulfonyl)carbamate]
IC50 [1]: ≤ 200 nM | IC50 [2]: ≤ 200 nM

CC(=O)c1c(C)c2cnc(Nc3ccc(N4CCN(S(=O)(=O)NC(=O)OCCNC(=O)CN)CC4)cn3)nc2n(C2CCCC2)c1=O [Compound A20, 2-(2-Aminoacetamido)ethyl ((4-(6-((6-acetyl-8-cyclopentyl-5-methyl-7-oxo-7,8-dihydropyrido[2,3-d]pyrimidin-2-yl)amino)pyridin-3-yl)piperazin-1-yl)sulfonyl)carbamate]
IC50 [1]: ≤ 200 nM | IC50 [2]: ≤ 200 nM

CC(=O)c1c(C)c2cnc(Nc3ccc(N4CCN(S(=O)(=O)NC(=O)OCCNC(=O)[C@H]5CCCN5)CC4)cn3)nc2n(C2CCCC2)c1=O [Compound A21, (R)-2-(Pyrrolidine-2-carboxamido)ethyl ((4-(6-((6-acetyl-8-cyclopentyl-5-methyl-7-oxo-7,8-dihydropyrido[2,3-d]pyrimidin-2-yl)amino)pyridin-3-yl)piperazin-1-yl)sulfonyl)-carbamate]
IC50 [1]: ≤ 200 nM | IC50 [2]: ≤ 200 nM

CC(=O)c1c(C)c2cnc(Nc3ccc(N4CCN(S(=O)(=O)NC(=O)C5CC5)CC4)cn3)nc2n(C2CCCC2)c1=O [Compound A38, N-((4-(6-((6-Acetyl-8-cyclopentyl-5-methyl-7-oxo-7,8-dihydropyrido[2,3-d]-pyrimidin-2-yl)amino)pyridin-3-yl)piperazin-1-yl)sulfonyl)cyclopropanecarboxamide]
IC50 [1]: ≤ 200 nM | IC50 [2]: ≤ 200 nM

CC(=O)c1c(C)c2cnc(Nc3ccc(N4CCN(S(=O)(=O)NC(=O)C5CCOCC5)CC4)cn3)nc2n(C2CCCC2)c1=O [Compound A40, N-((4-(6-((6-Acetyl-8-cyclopentyl-5-methyl-7-oxo-7,8-dihydropyrido[2,3-d]-pyrimidin-2-yl)amino)pyridin-3-yl)piperazin-1-yl)sulfonyl)tetrahydro-2H-pyran-4-carboxamide]
IC50 [1]: ≤ 200 nM | IC50 [2]: ≤ 200 nM

CNS(=O)(=O)N1CCN(c2ccc(Nc3ncc4c(C)c(C(C)=O)c(=O)n(C5CCCC5)c4n3)nc2)CC1 [Compound A46, 4-(6-((6-Acetyl-8-cyclopentyl-5-methyl-7-oxo-7,8-dihydropyrido[2,3-d]-pyrimidin-2-yl)amino)pyridin-3-yl)-N-methylpiperazine-1-sulfonamide]
IC50 [1]: ≤ 200 nM | IC50 [2]: 200 to 500 nM

CC(=O)c1c(C)c2cnc(Nc3ccc(N4CCN(S(=O)(=O)N(C)C)CC4)cn3)nc2n(C2CCCC2)c1=O [Compound A50, 4-(6-((6-Acetyl-8-cyclopentyl-5-methyl-7-oxo-7,8-dihydropyrido[2,3-d]-pyrimidin-2-yl)amino)pyridin-3-yl)-N,N-dimethylpiperazine-1-sulfonamide]
IC50 [1]: 200 to 500 nM | IC50 [2]: 200 to 500 nM

CC(=O)c1c(C)c2cnc(Nc3ccc(N4CCN(S(=O)(=O)n5ccnc5N)CC4)cn3)nc2n(C2CCCC2)c1=O [Compound A57, 6-Acetyl-2-((5-(4-((2-amino-1H-imidazol-1-yl)sulfonyl)piperazin-1-yl)pyridin-2-yl)amino)-8-cyclopentyl-5-methylpyrido[2,3-d]pyrimidin-7(8H)-one]
IC50 [1]: ≤ 200 nM | IC50 [2]: ≤ 200 nM

CC(=O)c1c(C)c2cnc(Nc3ccc(N4CCN(S(=O)(=O)n5ccnc5)CC4)cn3)nc2n(C2CCCC2)c1=O [Compound A58, 2-((5-(4-((1H-Imidazol-1-yl)sulfonyl)piperazin-1-yl)pyridin-2-yl)amino)-6-acetyl-8-cyclopentyl-5-methylpyrido[2,3-d]pyrimidin-7(8H)-one]
EC50 [3]: ≤ 1000 nM

CC(=O)c1c(C)c2cnc(Nc3ccc(N4CCN(S(=O)(=O)OC5CCCC5)CC4)cn3)nc2n(C2CCCC2)c1=O [Compound B4, Cyclopentyl 4-(6-((6-acetyl-8-cyclopentyl-5-methyl-7-oxo-7,8-dihydropyrido[2,3-d]pyrimidin-2-yl)amino)pyridin-3-yl)piperazine-1-sulfonate]
IC50 [1]: ≤ 200 nM | IC50 [2]: 200 to 500 nM

CC(=O)c1c(C)c2cnc(Nc3ccc(N4CCN(S(=O)(=O)C(C)C)CC4)cn3)nc2n(C2CCCC2)c1=O [Compound C1, 6-acetyl-8-cyclopentyl-2-[[5-(4-isopropylsulfonylpiperazin-1-yl)-2-pyridyl]-amino]-5-methylpyrido[2,3-d]pyrimidin-7-one]
IC50 [1]: ≤ 200 nM | IC50 [2]: ≤ 200 nM
